In US7071376B2, “Genes encoding p-coumarate 3-hydroxylase (C3H) and methods of use” (Purdue Research Foundation, priority 2000, dated 2006):
Where two headings read alike, the source gives them in different places.

What was measured:
[1] = molecular target: T1, C3H polypeptide (CYP98A3) (Arabidopsis thaliana, UniProt O22203); assay: in vitro C3H assay with microsomes from yeast expressing CYP98A3
T1 sequence (O22203 1-508): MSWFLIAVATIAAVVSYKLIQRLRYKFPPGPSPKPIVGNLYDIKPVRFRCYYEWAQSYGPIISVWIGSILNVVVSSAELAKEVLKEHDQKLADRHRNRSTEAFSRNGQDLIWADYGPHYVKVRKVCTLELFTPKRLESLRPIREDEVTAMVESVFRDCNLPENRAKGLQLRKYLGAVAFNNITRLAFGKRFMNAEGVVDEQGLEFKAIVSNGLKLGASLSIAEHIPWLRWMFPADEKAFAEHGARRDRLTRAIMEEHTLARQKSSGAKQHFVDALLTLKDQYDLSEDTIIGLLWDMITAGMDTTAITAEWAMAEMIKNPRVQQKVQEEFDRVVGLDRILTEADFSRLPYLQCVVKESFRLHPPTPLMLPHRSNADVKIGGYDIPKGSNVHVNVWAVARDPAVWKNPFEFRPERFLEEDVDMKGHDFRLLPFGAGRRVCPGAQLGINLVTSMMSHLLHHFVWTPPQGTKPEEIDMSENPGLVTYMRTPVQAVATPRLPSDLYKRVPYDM
Experimental: For C3H assays, an NADPH regenerating system consisting of 1 mM NADP^+, 10 mM glucose-6-phosphate, and 1 unit glucose-6-phosphate dehydrogenase was pre-incubated at 30 C for 5 min to permit the generation of NADPH in the presence of one of the putative C3H substrates in a final volume of 400 μL of assay buffer. Assays were initiated by the addition of 100 μL of microsomes and were allowed to incubate for 60 min at 30C before being terminated by boiling. Assays were clarified by centrifugation for 20 min at 13,000 ×g, and were analyzed directly by HPLC on a Microsorb-MV C-18 column (Rainin, Woburn Mass.) using a gradient of solvent A (1.0% acetic acid in water) and solvent B (acetonitrile; 0 to 10% B in 5 min, 10 to 25% B in 25 min; flow rate 1 mL min^−1). C3H reaction products were quantified using UV detection (caffeic acid, 322 nm; caffeyl aldehyde, 340 nm; caffeic acid methyl ester, 324 nm). Assays conducted using microsomes isolated from yeast transformed with pYeDP60 served as negative controls. The apparent Km for p-coumarate methyl ester was determined using triplicate assays analyzed by the Eadie-Hofstee method(Cornish-Bowden, 1995).
To experimentally address these issues, C3H-containing microsomes were prepared for use in in vitro assays of enzymatic activity.

[2] = molecular target: T1, C3H polypeptide (CYP98A3)
Experimental: WAT11 cells were transformed with pYeDP60, pYeDP60-REF8, and pYeDP60-ref8 (Gietz et al., 1992), cultured and then induced with galactose as described previously (Urban et al., 1994). For in vivo measurements of enzyme activity, cells were grown in media supplemented with 5 mM p-coumaric acid. At the end of the incubation period the medium was extracted with ethylacetate, and analyzed by HPLC as described above.
Finally, WAT11 yeast carrying the control vector and the YeDP60-REF8 vector were assayed for C3H polypeptide activity in vivo by adding p-coumarate directly to the medium of galactose-induced yeast cultures.

[3] = molecular target: T2, F5H (Arabidopsis thaliana, UniProt Q42600); settings: cited from earlier work
T2 construct: host or cells: yeast
T2 sequence (Q42600 1-520): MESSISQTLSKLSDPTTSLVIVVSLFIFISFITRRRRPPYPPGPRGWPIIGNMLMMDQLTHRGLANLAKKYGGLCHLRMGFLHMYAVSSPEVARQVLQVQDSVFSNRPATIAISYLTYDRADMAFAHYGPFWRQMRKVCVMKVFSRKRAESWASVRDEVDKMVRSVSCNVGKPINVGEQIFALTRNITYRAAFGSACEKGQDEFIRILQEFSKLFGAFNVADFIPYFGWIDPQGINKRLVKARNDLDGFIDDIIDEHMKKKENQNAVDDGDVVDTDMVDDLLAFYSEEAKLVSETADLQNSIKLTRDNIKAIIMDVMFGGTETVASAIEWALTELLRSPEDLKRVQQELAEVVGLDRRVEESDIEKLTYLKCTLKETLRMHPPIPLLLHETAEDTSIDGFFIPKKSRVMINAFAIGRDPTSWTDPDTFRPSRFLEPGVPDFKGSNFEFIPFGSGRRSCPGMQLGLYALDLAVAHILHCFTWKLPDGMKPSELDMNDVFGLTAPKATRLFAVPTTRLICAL

[4] = yeast microsomes, NADPH regenerating system, 60 min, 30 C, HPLC

With `CC(C)(COP(=O)(O)OP(=O)(O)OC[C@H]1O[C@@H](n2cnc3c(N)ncnc32)[C@H](O)[C@@H]1OP(=O)(O)O)[C@@H](O)C(=O)NCCC(=O)NCCSC(=O)/C=C/c1ccc(O)cc1` [p-coumaroyl CoA] the “activity of C3H toward substrate” value [1, 4] was “no activity”.

For `O=C(/C=C/c1ccc(O)cc1)O[C@@H]1O[C@H](CO)[C@@H](O)[C@H](O)[C@H]1O` [1-O-p-coumaroyl—D-glucose], the “activity of C3H toward substrate” value [1, 4] was “no activity”.

With `O=C(O)/C=C/c1ccc(O)cc1` [p-coumarate] the “activity of C3H toward substrate” value [1] was “so low that it precluded detailed kinetic analysis” and the “hydroxylation of substrate added to yeast medium (product caffeic acid)” value [2] was “capable of hydroxylating”.

In the case of `COC(=O)/C=C/c1ccc(O)cc1` [p-coumaroyl methyl ester], the “activity of C3H toward substrate” value [1] is reported as “much higher levels of activity” and the Km ([1]; read-out: apparent Km, substrate of C3H, yeast microsomes, triplicate assays, Eadie-Hofstee method) is reported as 2500 ± 100 µM.

For `COc1cc(/C=C/C=O)ccc1O` [coniferaldehyde], the Vmax ([3]; substrate of F5H) is listed as 5 pKat mg^−1 and the Km ([3]; substrate of F5H, read-out: Km) is listed as 1 µM.

In the case of `COc1cc(/C=C/CO)ccc1O` [coniferyl alcohol], the Vmax ([3]; substrate of F5H) is given as 6 pKat mg^−1 and the Km ([3]; substrate of F5H, read-out: Km) is given as 3 µM.

In the case of `OCC=Cc1ccc(O)cc1` [p-hydroxycinnamyl alcohol], the “activity of C3H toward substrate” value [1, 4] is reported as “no activity”.

In the case of `COc1cc(/C=C/C(=O)O)ccc1O` [ferulate], the “activity of C3H toward substrate” value [1, 4] is given as “No activity” and the Km ([3]; ferulate hydroxylation by F5H) is given as 1000 µM.

With `O=C/C=C/c1ccc(O)cc1` [p-coumaraldehyde] the “activity of C3H toward substrate” value [1, 4] was “Levels of activity comparable to those seen with p-coumarate”.
